Series [1] addresses T1, C-X-C chemokine receptor type 1 (Homo sapiens, UniProt P25024).
T1 sequence (P25024 whole entry): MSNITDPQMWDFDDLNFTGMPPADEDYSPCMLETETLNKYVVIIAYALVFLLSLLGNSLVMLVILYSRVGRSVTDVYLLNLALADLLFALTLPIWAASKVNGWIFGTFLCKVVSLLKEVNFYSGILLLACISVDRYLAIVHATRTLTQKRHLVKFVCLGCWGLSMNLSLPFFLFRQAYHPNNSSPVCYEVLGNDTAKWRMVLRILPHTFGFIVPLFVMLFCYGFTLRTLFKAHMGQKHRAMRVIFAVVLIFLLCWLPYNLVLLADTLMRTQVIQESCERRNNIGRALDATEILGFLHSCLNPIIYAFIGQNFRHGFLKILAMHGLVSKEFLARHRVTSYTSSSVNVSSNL

For series [2], the target named is T2, Polyunsaturated fatty acid lipoxygenase ALOX15 (Oryctolagus cuniculus, UniProt P12530).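 Also: inhibition of 15-lipoxygenase enzyme activity measured with linoleic acid as the substrate; in other assays of this panel Not Active means under 50% inhibition at 10 µM.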
T2 sequence (P12530 whole entry): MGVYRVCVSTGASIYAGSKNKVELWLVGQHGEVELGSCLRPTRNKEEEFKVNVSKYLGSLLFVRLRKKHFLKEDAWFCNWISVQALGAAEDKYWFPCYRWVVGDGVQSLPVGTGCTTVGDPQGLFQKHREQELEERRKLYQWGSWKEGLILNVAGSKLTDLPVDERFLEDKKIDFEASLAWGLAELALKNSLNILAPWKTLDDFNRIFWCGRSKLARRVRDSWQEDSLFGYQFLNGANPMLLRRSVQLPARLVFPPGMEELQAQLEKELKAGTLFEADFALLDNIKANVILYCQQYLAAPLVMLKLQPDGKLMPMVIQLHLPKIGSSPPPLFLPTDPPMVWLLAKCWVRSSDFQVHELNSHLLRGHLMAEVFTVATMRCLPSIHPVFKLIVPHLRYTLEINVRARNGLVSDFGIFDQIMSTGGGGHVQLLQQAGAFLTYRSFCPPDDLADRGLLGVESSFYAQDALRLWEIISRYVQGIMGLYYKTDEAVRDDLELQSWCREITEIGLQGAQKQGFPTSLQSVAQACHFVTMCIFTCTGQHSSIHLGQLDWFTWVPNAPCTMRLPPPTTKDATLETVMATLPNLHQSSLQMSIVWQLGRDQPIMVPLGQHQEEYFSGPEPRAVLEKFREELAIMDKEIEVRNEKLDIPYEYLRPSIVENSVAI
Briefly: biochemical. Format: tissue-based, Reticulocytes.

Series [3] is described as follows: DRUGMATRIX: Glutamate, Kainate radioligand binding (ligand: [3H] Kainic acid). It counts as cell membranes, Rattus norvegicus, Wistar, Brain, Membrane. To be noted: Not Active = under 50% inhibition at 10 µM.
Series [4] addresses Aldo-keto reductase family 1 member B1 (Rattus norvegicus, UniProt P07943). Briefly: biochemical. Format: tissue-based, Lens of camera-type eye.
The nature of series [5]: DRUGMATRIX: Leukotriene, BLT (LTB4) radioligand binding (ligand: [3H]LTB4). Format: cell membranes, Membrane. To be noted: u-937; Not Active = under 50% inhibition at 10 µM.
The target of series [6] is T3, Cholecystokinin receptor type A (Homo sapiens, UniProt P32238). Also: in other assays of this panel Not Active means under 50% inhibition at 10 µM.
T3 sequence (P32238 whole entry): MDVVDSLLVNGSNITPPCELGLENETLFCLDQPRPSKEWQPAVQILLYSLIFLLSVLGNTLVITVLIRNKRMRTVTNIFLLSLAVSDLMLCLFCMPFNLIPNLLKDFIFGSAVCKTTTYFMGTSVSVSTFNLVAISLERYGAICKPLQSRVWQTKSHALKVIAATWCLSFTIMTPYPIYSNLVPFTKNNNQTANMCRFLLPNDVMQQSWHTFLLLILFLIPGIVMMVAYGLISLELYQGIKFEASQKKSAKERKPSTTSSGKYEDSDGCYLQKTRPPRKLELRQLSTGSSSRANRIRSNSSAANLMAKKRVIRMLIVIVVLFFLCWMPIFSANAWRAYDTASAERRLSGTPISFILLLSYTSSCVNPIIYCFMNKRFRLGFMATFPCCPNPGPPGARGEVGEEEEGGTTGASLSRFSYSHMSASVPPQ
Format: cell membranes, Membrane. To be noted: 1321-n1.

Series [7] concerns the target Voltage-gated inwardly rectifying potassium channel KCNH2 (Homo sapiens, UniProt Q12809). To be noted: hek293. Also: in other assays of this panel Not Active means under 50% inhibition at 10 µM.
A further series deals with Cytochrome P450 2C19 (Homo sapiens, UniProt P33261). To be noted: bti-tn-5b1-4.
Sequence of Cytochrome P450 2C19 (P33261 whole entry): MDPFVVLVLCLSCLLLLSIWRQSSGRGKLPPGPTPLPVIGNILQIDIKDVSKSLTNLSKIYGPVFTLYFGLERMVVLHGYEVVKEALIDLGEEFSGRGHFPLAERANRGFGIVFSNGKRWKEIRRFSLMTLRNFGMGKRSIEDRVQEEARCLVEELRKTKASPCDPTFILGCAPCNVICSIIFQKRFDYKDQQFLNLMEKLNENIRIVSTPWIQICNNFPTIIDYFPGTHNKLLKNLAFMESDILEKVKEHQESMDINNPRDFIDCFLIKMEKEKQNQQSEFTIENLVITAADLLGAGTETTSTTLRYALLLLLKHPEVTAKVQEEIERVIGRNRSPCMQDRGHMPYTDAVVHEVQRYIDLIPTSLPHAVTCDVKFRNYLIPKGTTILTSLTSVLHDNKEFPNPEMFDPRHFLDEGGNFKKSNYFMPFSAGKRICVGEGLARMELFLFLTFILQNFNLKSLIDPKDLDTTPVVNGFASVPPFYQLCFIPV

Sequence of Voltage-gated inwardly rectifying potassium channel KCNH2 (Q12809 whole entry): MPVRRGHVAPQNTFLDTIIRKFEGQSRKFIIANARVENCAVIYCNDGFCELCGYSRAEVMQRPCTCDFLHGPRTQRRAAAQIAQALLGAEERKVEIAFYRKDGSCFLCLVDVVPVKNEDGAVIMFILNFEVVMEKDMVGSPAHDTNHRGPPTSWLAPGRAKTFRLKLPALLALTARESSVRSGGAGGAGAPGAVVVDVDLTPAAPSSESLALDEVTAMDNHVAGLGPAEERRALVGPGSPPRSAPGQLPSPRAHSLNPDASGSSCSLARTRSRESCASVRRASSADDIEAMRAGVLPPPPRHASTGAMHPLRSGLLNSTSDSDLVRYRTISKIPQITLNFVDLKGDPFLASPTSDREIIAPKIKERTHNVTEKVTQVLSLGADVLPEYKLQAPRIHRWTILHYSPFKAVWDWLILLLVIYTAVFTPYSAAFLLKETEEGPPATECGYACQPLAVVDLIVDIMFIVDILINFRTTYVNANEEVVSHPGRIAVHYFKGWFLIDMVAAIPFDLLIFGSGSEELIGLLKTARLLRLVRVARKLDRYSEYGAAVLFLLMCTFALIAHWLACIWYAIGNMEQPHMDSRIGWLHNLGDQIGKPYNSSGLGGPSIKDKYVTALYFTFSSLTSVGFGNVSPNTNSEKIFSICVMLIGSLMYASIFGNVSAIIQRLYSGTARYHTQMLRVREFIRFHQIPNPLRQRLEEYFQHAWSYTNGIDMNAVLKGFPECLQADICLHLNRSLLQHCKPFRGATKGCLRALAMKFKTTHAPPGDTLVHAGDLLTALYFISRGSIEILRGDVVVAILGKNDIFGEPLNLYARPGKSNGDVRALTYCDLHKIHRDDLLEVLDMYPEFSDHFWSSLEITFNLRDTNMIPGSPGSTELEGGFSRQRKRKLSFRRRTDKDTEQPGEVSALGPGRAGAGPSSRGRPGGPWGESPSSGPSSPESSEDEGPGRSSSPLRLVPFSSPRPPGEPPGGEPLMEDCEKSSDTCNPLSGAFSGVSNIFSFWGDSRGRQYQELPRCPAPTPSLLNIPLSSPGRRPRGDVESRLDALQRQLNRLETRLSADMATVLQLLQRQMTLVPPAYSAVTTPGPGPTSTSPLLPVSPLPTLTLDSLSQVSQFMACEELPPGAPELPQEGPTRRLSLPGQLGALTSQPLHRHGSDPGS

As usually defined, the IC50 is the concentration that gives 50% inhibition. In the case of `CC(C)(C)NC(=O)[C@@H]1C[C@@H]2CCCC[C@@H]2CN1C[C@@H](O)[C@H](Cc1ccccc1)NC(=O)[C@H](CC(N)=O)NC(=O)c1ccc2ccccc2n1`, the IC50 entry in series [1], in series [2] (reticulocytes), in series [3], in series [4], in series [5] and in series [6] was “Not Active” in each case. Moreover, the IC50 entry (in series [7]; against Cytochrome P450 2C19) was “Not Active” in each case. Moreover, the Ki entry (in series [3]; in series [5]; in series [7]; at Cytochrome P450 2C19) was “Not Active” throughout.

Consider `CC(=O)[C@@]1(O)CC[C@H]2[C@@H]3C[C@H](C)C4=CC(=O)CC[C@]4(C)[C@H]3CC[C@@]21C`, for which the IC50 entry in series [1], in series [2] (reticulocytes), in series [3], in series [4], in series [5] and in series [6] was “Not Active” each time. For the same compound, in series [7], the IC50 entry is “Not Active”. In addition, the Ki entry in series [3], in series [5] and in series [7] was “Not Active” throughout.

For the compound `N[C@@H](Cc1ccc(N(CCCl)CCCl)cc1)C(=O)O`, the IC50 result in series [1], in series [2] (reticulocytes), in series [3], in series [4], in series [5] and in series [6] was “Not Active” throughout. In addition, the IC50 result (in series [7]; on Cytochrome P450 2C19) was “Not Active” in each case. For the same compound, the Ki result (in series [3]; in series [5]; in series [7]; on Cytochrome P450 2C19) was “Not Active” in each case.

Consider `CCCCc1oc2ccccc2c1C(=O)c1cc(I)c(OCCN(CC)CC)c(I)c1` [AMIODARONE], for which the IC50 result in series [1], in series [2] (reticulocytes), in series [4] and in series [6] was “Not Active” in each case.

As to `OCCN(CCO)c1nc(N2CCCCC2)c2nc(N(CCO)CCO)nc(N3CCCCC3)c2n1` [DIPYRIDAMOLE], the IC50 result in series [1] is “Not Active”; in series [2] (read-out: IC50) it was 6.96 µM; in series [3], “Not Active”; in series [4] it was “Not Active”; in series [5] it was “Not Active”; in series [6], “Not Active”. The IC50 result (in series [7]; on Cytochrome P450 2C19) was “Not Active” in each case. In addition, the Ki entry (in series [3]; in series [5]; in series [7]; at Cytochrome P450 2C19) was “Not Active” in each case.

Take `Cc1oncc1C(=O)Nc1ccc(C(F)(F)F)cc1` [LEFLUNOMIDE]: the IC50 result in series [1], in series [2] (reticulocytes), in series [3], in series [4], in series [5] and in series [6] was “Not Active” in each case. The 50% inhibitory concentration (IC50) result (in series [7]; at Cytochrome P450 2C19) was “Not Active” throughout. The Ki result (in series [3]; in series [5]; in series [7]; on Cytochrome P450 2C19) was “Not Active” in each case.

Take `c1ccc([C@H]2CN3CCSC3=N2)cc1` [LEVAMISOLE]: the IC50 result in series [1], in series [2] (reticulocytes), in series [3], in series [4], in series [5] and in series [6] was “Not Active” throughout. Moreover, the IC50 result (in series [7]; against Cytochrome P450 2C19) was “Not Active” throughout. Moreover, the Ki entry (in series [3]; in series [5]; in series [7]; at Cytochrome P450 2C19) was “Not Active” throughout.

`N[C@@H](Cc1cc(I)c(Oc2ccc(O)c(I)c2)c(I)c1)C(=O)O` [LIOTHYRONINE]: the IC50 result (in series [1]; in series [2] (reticulocytes); in series [4]; in series [6]; in series [7]; against Cytochrome P450 2C19) was “Not Active” throughout. Moreover, the Ki result (in series [7]; on Cytochrome P450 2C19) was “Not Active” in each case.

For the compound `CCOC(=O)N1CCC(=C2c3ccc(Cl)cc3CCc3cccnc32)CC1` [LORATADINE], the IC50 result in series [1], in series [2] (reticulocytes), in series [3], in series [4], in series [5] and in series [6] was “Not Active” each time. For the same compound, the Ki result in series [3] and in series [5] was “Not Active” throughout.

Take `CC[C@@H](CO)NC(=O)[C@@H]1C=C2c3cccc4[nH]cc(c34)C[C@H]2N(C)C1` [METHYLERGONOVINE]: the IC50 entry in series [1], in series [2] (reticulocytes), in series [3], in series [4], in series [5] and in series [6] was “Not Active” in each case. Also, the IC50 result in series [7] is reported as “Not Active”. The Ki result in series [3], in series [5] and in series [7] was “Not Active” throughout.

Regarding `CN1CCN(CCCN2c3ccccc3Sc3ccc(Cl)cc32)CC1` [PROCHLORPERAZINE], the IC50 result (in series [1]; in series [2] (reticulocytes); in series [4]; in series [6]; at Cytochrome P450 2C19) was “Not Active” throughout. Besides, at Cytochrome P450 2C19, the Ki entry was “Not Active”.

Take `Nc1nc2ccc(OC(F)(F)F)cc2s1` [RILUZOLE]: the IC50 entry in series [1], in series [2] (reticulocytes), in series [3], in series [4], in series [5] and in series [6] was “Not Active” throughout. Besides, the Ki entry in series [3] and in series [5] was “Not Active” in each case.

Consider `Cc1nc2n(c(=O)c1CCN1CCC(c3noc4cc(F)ccc34)CC1)CCCC2` [RISPERIDONE], for which the IC50 entry (in series [1]; in series [2] (reticulocytes); in series [4]; in series [6]; against Cytochrome P450 2C19) was “Not Active” in each case. The Ki entry at Cytochrome P450 2C19 is “Not Active”.

Consider `C[C@@H]1CN(c2c(F)c(N)c3c(=O)c(C(=O)O)cn(C4CC4)c3c2F)C[C@H](C)N1` [SPARFLOXACIN], for which the IC50 entry in series [1], in series [2] (reticulocytes), in series [3], in series [4], in series [5] and in series [6] was “Not Active” each time. Moreover, the IC50 entry on Cytochrome P450 2C19 is “Not Active”. Also, the Ki result (in series [3]; in series [5]; on Cytochrome P450 2C19) was “Not Active” each time.

On to `CC/C(=C(\c1ccccc1)c1ccc(OCCN(C)C)cc1)c1ccccc1` [TAMOXIFEN], for which the IC50 result (in series [1]; in series [2] (reticulocytes); in series [4]; in series [6]; at Cytochrome P450 2C19) was “Not Active” each time. Moreover, the Ki entry on Cytochrome P450 2C19 was “Not Active”.

With `Nc1nc2nc[nH]c2c(=S)[nH]1` [THIOGUANINE], the IC50 result in series [1] was “Not Active”; in series [2] (read-out: IC50), 16.2 µM; in series [3], “Not Active”; in series [4] it was “Not Active”; in series [5] it was “Not Active”; in series [6], “Not Active”. Also, on Cytochrome P450 2C19, the IC50 entry is recorded as “Not Active”. In addition, the Ki entry (in series [3]; in series [5]; at Cytochrome P450 2C19) was “Not Active” in each case.

For the compound `Cc1cccc(N(C)C(=S)Oc2ccc3ccccc3c2)c1` [TOLNAFTATE], the IC50 entry in series [1], in series [2] (reticulocytes), in series [3], in series [4], in series [5] and in series [6] was “Not Active” in each case. Also, the IC50 entry in series [7] is “Not Active”. For the same compound, the Ki entry in series [3], in series [5] and in series [7] was “Not Active” each time.

Source of the values: ChEMBL document CHEMBL1909046, “DrugMatrix in vitro pharmacology data”.
